How the values were obtained:
T47D = test: Cell Titer Glo 2.0 relative cell viability, 72 h (Example 10); format: cell-based; conditions: Homo sapiens, T47D cell line, read-out: Abs IC50
Method: (§1) The present Example provides experimental evidence that cell lines predicted to be sensitive to a Chk1 inhibitor (e.g., prexasertib, are also sensitive to Wee1 inhibitors (e.g., adavosertib (AZD1775, MK1775) and azenosertib (Zn-C3)). Cell lines were treated with increasing doses of either prexasertib, adavosertib, or azenosertib, and relative cell viability against a DMSO control was assessed 72 h after drug treatment using Cell Titer Glo 2.0 (Promega) and a SpectraMax microplate reader. The results are shown in FIGS. 19A-19C. Error bars represent standard deviations from quadruplicate samples.

PC3 = test: as above; format: cell-based; conditions: Homo sapiens, PC-3, PC3 cell line, read-out: Abs IC50
Method: as §1

A375 = test: as above; format: cell-based; conditions: Homo sapiens, A-375, A375 cell line, read-out: Abs IC50
Method: as §1

HeLa = test: as above; format: cell-based; conditions: Homo sapiens, HeLa cell line, read-out: Abs IC50
Method: as §1

BxPC3 = test: as above; format: cell-based; conditions: Homo sapiens, BXPC-3, BxPC3 cell line, read-out: Abs IC50
Method: as §1

OVCAR3 = test: as above; format: cell-based; conditions: Homo sapiens, OVCAR-3, OVCAR3 cell line, read-out: Abs IC50
Method: as §1

A2780 = test: as above; format: cell-based; conditions: Homo sapiens, A2780 cell line, read-out: Abs IC50
Method: as §1

[1] = test system: OVCAR3-P and OVCAR3-R cells; test: Global pan-/phospho-proteomic analysis and western blot after gemcitabine (Example 12); format: cell-based, human; conditions: gemcitabine 10 nM for 24 hours vs DMSO control
Method: To determine whether treatment with gemcitabine can alter the abundance of biomarkers associated with a Response-Predictive Signature, a global pan-proteomic and phosphor-proteomic analysis was performed to compare treatment with low dose gemcitabine (10 nM for 24 hours) to DMSO control in both OVCAR3-P and OVCAR3-R cells.

IC50 (T47D) [µM] | IC50 (PC3) [µM] | IC50 (A375) [µM] | IC50 (HeLa) [µM] | IC50 (BxPC3) [µM] | IC50 (OVCAR3) [µM] | IC50 (A2780) [µM] | SMILES | Ser296 phosphorylated Chk1 (BM1) abundance [1] | abundance of total cyclin E1 (BM3) [1]
> 10 | > 10 | 0.17 | 0.328 | 0.36 | 0.237 | 0.653 | C=CCn1c(=O)c2cnc(Nc3ccc(N4CCN(C)CC4)cc3)nc2n1-c1cccc(C(C)(C)O)n1 [Adavosertib] |  | 
> 10 | > 10 | 0.239 | 0.604 | 0.448 | 0.233 | 0.9 | C=CCn1c(=O)c2cnc(Nc3ccc(N4CCN(C)CC4)cc3)nc2n1-c1ccc2c(n1)[C@@](O)(CC)CC2 [Azenosertib] |  | 
 |  |  |  |  |  |  | Nc1ccn([C@@H]2O[C@H](CO)[C@@H](O)C2(F)F)c(=O)n1 [gemcitabine, 2′,2′-difluoro 2′-deoxycytidine] | significant increase | significant increase

— patent US20260166029A1, “METHODS AND SYSTEMS FOR TREATING DISEASE USING AN ATR/CHK1 SIGNALING PATHWAY INHIBITOR” (Acrivon Therapeutics, Inc., priority 2022, published 2026)
